Test results reported in US11427588B2, “Compositions and methods for treating neurodegenerative diseases and cardiomyopathy” (THE REGENTS OF THE UNIVERSITY OF CALIFORNIA, priority 2013, dated 2022).
“Also recorded” adds a separate entry of the source. Like-named read-outs stand apart in the source and are kept apart here.

Key:
Parkin and Bcl-xL = assay: Phosphorylation level of Parkin and Bcl-xL in neuronal cell lines; format: cell-based
Excerpt: (§1) Kinetin mediated PINK1 activity amplification was characterized using a variety of cell lines and primary cells. The HL-1 cell line, an established cardiomyocyte cell line that retains characteristic properties of differentiated cardiac tissue (Claycomb et al., 1998) as well as freshly isolated cardiomyocytes from PINK1wt or PINK1−/− mice. Infected HL-1 cells with a lentivirus expressing shRNA targeting PINK1, were developed to generate a PINK1 knockdown control. To analyze the amplification of PINK1 kinase activity we analyzed the phosphorylation level of Bcl-xL, Mfn2, and Parkin following treatment of PINK1wt and PINK1 knockdown or −/− cell lines with DMSO or 25 μM adenine, kinetin or 9-methyl kinetin (9MK negative control) and fCCCP for three to twenty-four hours following published protocols (Arena et al., 2013; Chen and Dorn, 2013; Kondapalli et al., 2012). […] Accordingly, PINK1wt expressing cells see an increase in PINK1 dependent phosphorylation, but not in those cells where PINK1 has been depleted.

rat hippocampal neurons = assay: Mitochondrial motility assay in axons; format: cell-based; conditions: 50 μM
Excerpt: (§2) Mitochondrial motility assay: Primary hippocampal neuronal cultures were co-transfected with mitochondrial targeted GFP (mitoGFP) and mCherry-tagged synaptophysin (mCherrySynaptophysin) to allow for the live identification of mitochondria in axons.
(§3) To test if kinetin decreases motility we examined the mobility of axonal mitochondria in hippocampal neurons. Primary hippocampal neuronal cultures were co-transfected with mitoGFP and mCherry-tagged Synaptophysin (mCherrySynaptophysin) to allow for the live identification of mitochondria in axons. […] To test the PINK1 dependency of this process, we treated control mouse C57 (PINK1 wildtype) and PINK1 knockout derived hippocampal neurons with kinetin or 9MK and imaged their mitochondria.

[1] = tested on: C57 (PINK1 wildtype) derived hippocampal neurons; assay: Mitochondrial motility assay in axons; format: cell-based, mouse
Excerpt: as §2, §3

[2] = tested on: PINK1 knockout derived hippocampal neurons; assay: Mitochondrial motility assay in axons; format: cell-based, mouse
Excerpt: as §2, §3

PINK1wt mice [3] = assay: Heart health and performance in mice treated from birth; format: in vivo
Method: PINK1 expression is protective in several mouse models of heart failure. PINK1wt expression will block pathological hypertrophy, increase heart fractional shortening, and prevent ischemia induced death of heart tissue. To assay the effect of kinetin PINK1 wt or PINK1−/− mice were treated with vehicle, adenine or kinetin from birth following published protocols for administration of kinetin (Hims et al., 2007; Shetty et al., 2011). The mice were sacrificed and whole hearts analyzed, and isolated cardiomyocytes from mice at appropriate time periods (e.g. 2 and 6 months). O2 consumption, mitochondrial integrity (mtDNA abundance, mitochondrial capacity and JC-1 fluorescence) caspase 3/7 cleavage activity and TUNEL staining were measured to assess the health of these tissues. According to published results (Billia et al., 2011; Chen and Dorn, 2013), PINK1 activity is essential for normal 02 consumption and maintenance of mitochondrial integrity. Decreased 02 consumption and mitochondrial integrity in PINK1−/− mice was compared to PINK1wt mice. […] Additionally, caspase 3/7 cleavage activity and TUNEL staining of the left ventricle were increased in PINK1−/− mice derived cardiomyocytes compared to PINK1wt.
In addition to these analyses we analyzed the performance of the heart in whole animals. We utilized the same procedure as above and treated either PINK1wt or PINK1−/− mice with vehicle, adenine or kinetin from birth following published protocols for administration of kinetin (Hims et al., 2007; Shetty et al., 2011). […] These characteristics of pathological hypertrophy indicate heart failure in the PINK1−/− mice will not increase as dramatically in PINK1wt mice (Billia et al., 2011). […] These experiments indicate that amplification of PINK1 activity by treatment with kinetin can block age-induced loss in heart function.

SH-SY5Y = format: in vitro ADME; conditions: not told
Excerpt: We included negative control analogs of Kinetin which prevent metabolism.

[4] = tested on: PINK1wt HL-1 cells or cardiomyocytes derived from PINK1wt mice; assay: Apoptosis of cardiomyocytes after mitochondrial toxins (caspase 3/7, TUNEL, Annexin V); format: cell-based; conditions: 25 μM, versus control compounds or PINK1 knockdown or −/− cells
Excerpt: as §1
The amount of early apoptosis was measured using caspase 3/7 cleavage activity and later stage apoptosis by measuring the number of Terminal deoxynucleotidyl transferase dUTP nick end labeling (TUNEL) positive cells and Annexin V binding by FACS analysis following treatment with mitochondrial toxins. […]

PINK1wt mice [5] = assay: Induced myocardial infarction model; format: in vivo; conditions: two weeks dosing
Method: Utilizing mice dosed with kinetin, adenine or vehicle for two weeks, we induced myocardial infarction by ligating the left anterior descending artery at the level of the left atrial appendage (Wang et al., 2006) or sham surgery. Following infarct for 24 or 72 hours, we sacrificed the mice and analyzed the heart by TUNEL staining as cardiomyocytes are susceptible to cell death following infarct. […] These experiments replicate our results in neurons in which kinetin treatment will block apoptosis in response to a number of cellular stressors.

c1coc(CNc2ncnc3[nH]cnc23)c1 [kinetin]
phosphorylation level of Parkin and Bcl-xL (Parkin and Bcl-xL): significant increase | mitochondrial movement / motility (rat hippocampal neurons; 48 hours pre-treatment): potently and specifically inhibited | velocity of mitochondria that remain in motion (rat hippocampal neurons; 48 hours, retrograde direction): slows; also recorded: decrease in the velocity of mitochondria in the retrograde direction | mitochondrial motility [1]: decrease in motility | mitochondrial motility [2]: no change in motility | mitochondrial motility ([2]; listed as Kinetin): no effect on mitochondrial motility | age induced pathological hypertrophy (PINK1wt mice [3]; HBW ratio, cross sectional area, extracellular matrix): reduces this age induced pathological hypertrophy | fractional shortening (PINK1wt mice [3]; six month old, echocardiography): still higher fractional shortening | O2 consumption and mitochondrial integrity (PINK1wt mice [3]; treated from birth): Improved values | TUNEL staining of the left ventricle (PINK1wt mice [3]; treated from birth): further reduced TUNEL staining | membrane impermeable metabolite after incubation (SH-SY5Y): presence of a membrane impermeable metabolite | apoptosis levels [4]: significantly lower levels | TUNEL positive cells in the peri-infarct area (PINK1wt mice [5]; 24 or 72 hours after infarct): significant decrease in TUNEL positive cells | scar size and level of collagen deposition (PINK1wt mice [5]; post-infarct): significant decrease in the scar size and the level of collagen deposition
